From publication PMC11189555, “Aryl amino acetamides prevent Plasmodium falciparum ring development via targeting the lipid-transfer protein PfSTART1” (Nature Communications, 2024)
Like-named read-outs stand apart in the source and are kept apart here.

Columns and labels:
[1] = system: PopD-D7 M-833 resistant clone (PfSTART1 N309K); experiment: Growth inhibition assay (72 h, LDH activity); type: cell-based, Plasmodium falciparum
Method: The drug was then removed, and parasites were allowed to recover. Another cycle of drug treatment (3 μM M-833) was then resumed. The resistant lines were cloned out by limiting dilution (diluting the culture into a 96-well plate to achieve an average of ~0.3 parasites per well), prior to growth inhibition assays and genomic DNA (gDNA) extraction (DNeasy Blood and Tissue kit (Qiagen)[18].
(§1) Parasite growth assays with inhibitory compounds were performed as per[11] and are fully described in the Supplementary Information. […]
(§2) Growth inhibition assays. Synchronised ring-stage parasites (0.3-0.6% parasitemia, 2% haematocrit) were grown for 72 h in a serial-dilution of the compound under […]
(§3) and compound 4. Note that M-833 was first purchased from MolPort (MolPort -002-267-916) then made in-house at WEHI: the differences observed in EC50s across experiments are attributed to the different batches of M -833. For some experiments, 0, 0.25 or 2.5 mM of glucosamine (GlcN) was also added. Experiments were set up in technical duplicates or triplicates. Following a freeze -thaw cycle, lactate dehydrogenase (LDH) activity was assessed as an indicator of parasite growt h 5. 30 μL of parasite culture was incubated for 30 min in the dark with 75 μL Malstat mixture (0.1 M Tris pH 9.0, 20 g/L lactic acid, pH 7.5, 0.2% Triton-X100, 0.5 g/L acetylpyridine adenine dinucleotide (APAD, Sigma), 200 μg/mL nitroblue tetrazolium (NBT; Sigma), 1 μg/mL phenozine ethosulfate (PES; Sigma)). Absorbance was then measured at 650 nm, transformed using the formula below, plotted against the logarithm of the concentrations, and a non-linear regression (log(inhibitor) vs. response, variable slope) was calculated using GraphPad Prism to assess the half-inhibitory […]
(§4) Growth inhibition % = (1 − average(sample)− average(uRBC)) ∗ 100 […]
(§5) The DMSO samples were also used to assess growth of parasite in the presence of 0.25 and 2.5 mM GlcN (normalised by DMSO in 0 mM GlcN). […]

[2] = system: 3D7 P. falciparum parasites; experiment: Growth inhibition assay (72 h, LDH activity); type: cell-based, Plasmodium falciparum; details: for EC50: Plasmodium falciparum
Method: as §1, §2, §3, §4, §5

## CN(C(=O)C(C)(C)Nc1ccc(Cl)c(S(=O)(=O)N2CCOCC2)c1)c1ccc(F)c(Cl)c1 [compound 4]
[1]; Plasmodium falciparum, Supplementary Table 1, PopD-D7 (N309K), 72 h, read-out: EC50
  EC50: 15.7 µM
[1]; PopD-D7 (N309K), Fig 4B
  resistance of the line compared with 3D7: No change in EC50
[1]; PopD-D7, 0.00152416 uM, biological replicate 3
  sample/DMSO: -12.3682
[1]; PopD-D7, 0.00304832 uM, biological replicate 1
  sample/DMSO: -15.0464
[1]; PopD-D7, 0.00457247 uM, biological replicate 3
  sample/DMSO: -16.5856
[1]; PopD-D7, 0.00914495 uM, biological replicate 1
  sample/DMSO: -23.9863
[1]; PopD-D7, 0.0137174 uM, biological replicate 3
  sample/DMSO: -19.1403
[1]; PopD-D7, 0.0274348 uM, biological replicate 1
  sample/DMSO: -36.3947
[1]; PopD-D7, 0.0411523 uM, biological replicate 3
  sample/DMSO: -26.0746
[1]; PopD-D7, 0.078125 uM, biological replicate 2
  sample/DMSO: -26.6126
[1]; PopD-D7, 0.0823045 uM, biological replicate 1
  sample/DMSO: -40.9868
[1]; PopD-D7, 0.123457 uM, biological replicate 3
  sample/DMSO: -30.0892
[1]; PopD-D7, 0.15625 uM, biological replicate 2
  sample/DMSO: -24.0527
[1]; PopD-D7, 0.246914 uM, biological replicate 1
  sample/DMSO: -42.7943
[1]; PopD-D7, 0.3125 uM, biological replicate 2
  sample/DMSO: -25.1299
[1]; PopD-D7, 0.37037 uM, biological replicate 3
  sample/DMSO: -34.7932
[1]; PopD-D7, 0.625 uM, biological replicate 2
  sample/DMSO: -6.501
[1]; PopD-D7, 0.740741 uM, biological replicate 1
  sample/DMSO: -38.9839
[1]; PopD-D7, 1.11111 uM, biological replicate 3
  sample/DMSO: -37.8751
[1]; PopD-D7, 1.25 uM, biological replicate 2
  sample/DMSO: 3.536
[1]; PopD-D7, 2.22222 uM, biological replicate 1
  sample/DMSO: -23.9863
[1]; PopD-D7, 2.5 uM, biological replicate 2
  sample/DMSO: 14.2567
[1]; PopD-D7, 3.33333 uM, biological replicate 3
  sample/DMSO: -28.5888
[1]; PopD-D7, 5 uM, biological replicate 2
  sample/DMSO: 26.676
[1]; PopD-D7, 6.66667 uM, biological replicate 1
  sample/DMSO: 9.624
[1]; PopD-D7, 10 uM, biological replicate 2
  sample/DMSO: 49.8923
[1]; PopD-D7, 10 uM, biological replicate 3
  sample/DMSO: 18.8159
[1]; PopD-D7, 20 uM, biological replicate 1
  sample/DMSO: 64.3869
[1]; PopD-D7, 20 uM, biological replicate 2
  sample/DMSO: 82.347
[1]; Supplementary Table 1, EC50 on PopD-D7 vs 3D7
  Fold change compared to 3D7: 1.6 fold
[2]; 3D7, 0.00152416 uM, biological replicate 3 (2023-02-07)
  Growth inhibition % (LDH, relative to DMSO): -17.5745
[2]; 3D7, 0.00304832 uM, biological replicate 1 (2021-10-25)
  Growth inhibition % (LDH, relative to DMSO): -18.3864
[2]; 3D7, 0.00457247 uM, biological replicate 3 (2023-02-07)
  Growth inhibition % (LDH, relative to DMSO): -17.9271
[2]; 3D7, 0.00914495 uM, biological replicate 1 (2021-10-25)
  Growth inhibition % (LDH, relative to DMSO): -26.0151
[2]; 3D7, 0.0137174 uM, biological replicate 3 (2023-02-07)
  Growth inhibition % (LDH, relative to DMSO): -25.0392
[2]; 3D7, 0.0274348 uM, biological replicate 1 (2021-10-25)
  Growth inhibition % (LDH, relative to DMSO): -36.8606
[2]; 3D7, 0.0411523 uM, biological replicate 3 (2023-02-07)
  Growth inhibition % (LDH, relative to DMSO): -21.1207
[2]; 3D7, 0.078125 uM, biological replicate 2 (2023-02-07)
  Growth inhibition % (LDH, relative to DMSO): -4.3247
[2]; 3D7, 0.0823045 uM, biological replicate 1 (2021-10-25)
  Growth inhibition % (LDH, relative to DMSO): -42.8019
[2]; 3D7, 0.123457 uM, biological replicate 3 (2023-02-07)
  Growth inhibition % (LDH, relative to DMSO): -34.2281
[2]; 3D7, 0.15625 uM, biological replicate 2 (2023-02-07)
  Growth inhibition % (LDH, relative to DMSO): -4.463
[2]; 3D7, 0.246914 uM, biological replicate 1 (2021-10-25)
  Growth inhibition % (LDH, relative to DMSO): -45.3858
[2]; 3D7, 0.3125 uM, biological replicate 2 (2023-02-07)
  Growth inhibition % (LDH, relative to DMSO): -3.423
[2]; 3D7, 0.37037 uM, biological replicate 3 (2023-02-07)
  Growth inhibition % (LDH, relative to DMSO): -26.6654
[2]; 3D7, 0.625 uM, biological replicate 2 (2023-02-07)
  Growth inhibition % (LDH, relative to DMSO): -4.556
[2]; 3D7, 0.740741 uM, biological replicate 1 (2021-10-25)
  Growth inhibition % (LDH, relative to DMSO): -43.9445
[2]; 3D7, 1.11111 uM, biological replicate 3 (2023-02-07)
  Growth inhibition % (LDH, relative to DMSO): -37.6176
[2]; 3D7, 1.25 uM, biological replicate 2 (2023-02-07)
  Growth inhibition % (LDH, relative to DMSO): 10.8002
[2]; 3D7, 2.22222 uM, biological replicate 1 (2021-10-25)
  Growth inhibition % (LDH, relative to DMSO): -10.0721
[2]; 3D7, 2.5 uM, biological replicate 2 (2023-02-07)
  Growth inhibition % (LDH, relative to DMSO): 18.1545
[2]; 3D7, 3.33333 uM, biological replicate 3 (2023-02-07)
  Growth inhibition % (LDH, relative to DMSO): -31.3871
[2]; 3D7, 5 uM, biological replicate 2 (2023-02-07)
  Growth inhibition % (LDH, relative to DMSO): 37.6735
[2]; 3D7, 6.66667 uM, biological replicate 1 (2021-10-25)
  Growth inhibition % (LDH, relative to DMSO): 35.3489
[2]; 3D7, 10 uM, biological replicate 2 (2023-02-07)
  Growth inhibition % (LDH, relative to DMSO): 60.2451
[2]; 3D7, 10 uM, biological replicate 3 (2023-02-07)
  Growth inhibition % (LDH, relative to DMSO): 26.4107
[2]; 3D7, 20 uM, biological replicate 1 (2021-10-25)
  Growth inhibition % (LDH, relative to DMSO): 75.5669
[2]; 3D7, 20 uM, biological replicate 2 (2023-02-07)
  Growth inhibition % (LDH, relative to DMSO): 87.1878
[2]; 3D7, 72 h, Supplementary Table 1, 3D7, 72 h, read-out: EC50
  EC50: 10 µM
[2]; 3D7, Fig 4A, 3D7 parasites, read-out: Pf 3D7 EC50 (SD)
  EC50: > 10 µM
